Test results reported in US20040265323A1, “Compositions comprising pathogen elicited epithelial chemoattractant (eicosanoid hepoxilin A3), inhibitors thereof and methods of use thereof” (priority 2003, published 2004).
Entries after “also recorded” stand apart in the source; their conditions may differ.

What was measured:
[1] = tested on: S. typhimurium-induced PMN transepithelial migration, T84 cells; assay: Inhibition of S. typhimurium-induced PMN transepithelial migration across T84 monolayers; format: cell-based, human; settings: T84 pre-treated: baicalein 48 hours, caffeic acid 24 hours
Description: It was further examined if hepoxilin A3 acts in a gradient fashion to drive PMN migration from the basolateral to the apical epithelial surface. For these experiments, the physiologically directed (basolateral-to-apical) PMN transepithelial migration assay using cell culture inserts of inverted T84 monolayers has been used (McCormick et al., 1993; Parkos et al., 1992). Human PMN were isolated from normal volunteers, as described elsewhere (Parkos et al., 1992; Henson and Oades, 1975). […] PMN which completely traversed the monolayer were represented as the number of PMN (CE/ml in a total volume of 1 ml). Values were expressed as the mean and SD of an individual experiment done in triplicate repeated at least 3 times.
Hepoxilin A3 is formed via the 12-lipoxygenase (LO) metabolism pathway of arachidonic acid. Therefore, the involvement of the 12-LO pathway in the ability of the enteric pathogen, S. typhimurium, to induce PMN transepithelial migration and elicit PEEC secretion was tested. […] For 12-LO inhibition, HBSS(+)-washed T84 cell monolayers were incubated in the presence baicalein [stock concentration at 1 mM in DMSO] for 48 hours at 37° C. Subsequently, S. typhimurium SL1344 was added to the apical surface of the T84 monolayers and after an incubation of 1 hour at 37° C., the cells were washed free of non-adherent bacteria and then processed for the PMN transmigration assay. […] For 5-LO inhibition, the T84 cells were washed with HBSS(+) and then were incubated for 24 hours in the presence of caffeic acid (stock concentration at 22 mM in DMSO). Both inhibitors were purchased form Biomol, Plymouth Meeting, Pa.
In each instance, the T84 cell monolayers were incubated for […] in the presence of the inhibitor prior to the addition of S. typhimurium.

MRP-2 = MRP-2 expression in large bowel of CD45Rbhi T cell transferred mice; format: in vivo; settings: sick mice after treatment, FIG. 11C
Protocol: The upper third of the large bowel from these mice were excised, and fixed in OCT. Slides from these tissues were prepared and fluorescently probed for MRP-2 expression. […] Thus, in the efflux pathway for hepoxilin A3, MRP-2 is in fact activated during the disease phase and suppressed upon baicalein treatment

[2] = tested on: S. typhimurium-infected human intestinal xenografts; assay: Histopathology of human intestinal xenografts infected with S. typhimurium; format: in vivo; settings: 1 μM in 100 μl intralumenally 2 hours prior to infection; xenografts in SCID mice; 15 hours after infection
Protocol: Further, the effect of baicalein on S. typhimurium pathology in human intestinal xenografts was determined (Savidge et al., 1995) (FIG. 7). The human fetal intestinal xenograft model used in the present study has been previously described in detail (Savidge et al., 1995). Briefly, human fetal small intestine (n=3, gestational age 10-14weeks) was transplanted subcutaneously into C.B-17 severe-combined immunodeficient (SCID) mice. Xenografts were allowed to develop for a period between 10-20 weeks before use at which time the epithelium and underlying mucosa is fully differentiated (Savidge et al., 1995). Xenografts were infected with approximately 5×10^7 wild type S. typhimurium SL1344 in sterile HBSS(+) buffer in a 100 μl volume injected intralumenally by subcutaneous injection. Xenografts receiving the drug treatment were injected with 1 μM baicalein in a 100 μl volume 2 hours prior to infection with S. typhimurium (in the continued presence of 1 μM baicalein). Xenograft tissue was removed 15 hours after infection, extensively washed, and snap frozen in OCT compound.
A severe vascular disturbance was also noted. These outcomes are all consistent with the clinical manifestations observed from S. typhimurium infection in humans.

O=c1cc(-c2ccccc2)oc2cc(O)c(O)c(O)c12 [baicalein]
S. typhimurium-induced PMN transepithelial migration with lipoxygenase inhibitor [1]: attenuated S. typhimurium-induced PMN transepithelial migration in a concentration-dependent fashion; also recorded: dose dependent decrease
MRP-2 expression at apical surface of intestinal epithelium (MRP-2): completely suppressed
histopathology / severity of intestinal inflammation [2]: only minimal alterations detectable; also recorded: significantly reduced; also recorded: significantly less severe
